According to patent US12606543B2, “Indole derivatives as serotonergic agents useful for the treatment of disorders related thereto” (priority 2023, dated 2026):
Read-outs that look alike come from different tables or passages of the source.

Legend:
[1] = Pharmacokinetic studies in rat (i.v.); assay type: in vivo; settings: male, Sprague-Dawley, plasma; for concentration at 0.25 h / concentration at 1 h / concentration at 4 h: intravenous, dose per Dose column (1.32-2.09 mg/kg); for half-life / AUC(0-t): iv, rat plasma, i.v., dose per Dose column; for half-life: estimated from 2 points only
Experimental: Animals: Male Sprague-Dawley rats (˜225-350 g) from Charles River Labs were acclimatized for a minimum of 5 days prior to start of study procedures. Body weights were recorded on the day of dosing.
Any abnormalities were documented including presence/absence of wet dog shakes/back muscle contractions (WDS/BMC).
Dosing: Formulations were administered intravenously (i.v.) via the tail vein using a 25 G needle connected to a 1 cc syringe.
The exemplary compounds of Formula (I) were freshly prepared at the appropriate concentrations in 5% Tween-80 in saline.
Blood collection time (h): 0, […], 1 and 4
Volume/time-point: ˜0.25 mL (saphenous vein)
Instrumentation: AB Sciex QTRAP 4000 or 6500 MS/MS system equipped with an LC system with a binary pump, a solvent degasser, a thermostated column compartment, and a multiplate autosampler.
Analysis software: Phoenix® WinNonlin® 8.3 (Pharsight, Certara, Mountainview, CA).
Analysis methods: non-compartmental analysis, linear up/log down trapezoidal rule.
PK parameters: t1/2 and AUC0-tlast was estimated.
The Compounds of Formula (I) were freshly prepared at the appropriate concentrations in 5% Tween-80 in saline.
Instrumentation: AB Sciex QTRAP 4000 or 6500 MS/MS system equipped with an LC system with a binary pump, a solvent degasser, a thermostated column compartment and a multiplate autosampler.
PK parameters: t1/2 and AUC0-tlast will be estimated.

[2] = Plasma protein binding by equilibrium dialysis, mouse; assay type: in vitro ADME; settings: mouse plasma, 6 hours; for recovery at 6 h, 1 µM: CD-1, mouse, plasma; for recovery at 6 h, 1 µM / fraction unbound at 6 h, 1 μM: equilibrium dialysis, 37° C.; for fraction unbound at 6 h, 1 μM: CD-1, read-out: % Bound (converted)
Experimental: The final concentration of compound was 1 μM. The final concentration of DMSO was 0.5%. Ketoconazole was used as positive control in the assay.
The assay was performed in duplicate.
All calculations were carried out using Microsoft Excel. […] The percentages of bound compound were calculated as follows: […]
Ketoconazole was used as positive control in the assay.

human 5-HT2C receptor = molecular target: T1, human 5-HT2C receptor (Homo sapiens, UniProt P28335); test: cell-based; settings: calcium mobilization FLIPR; for Emax (% of serotonin): U2OS cells, relative to maximum response of serotonin; for EC50: stably transfected U2OS cells
T1 construct: expressed in transfected cells; host or cells: U2OS
T1 sequence (P28335 33-458): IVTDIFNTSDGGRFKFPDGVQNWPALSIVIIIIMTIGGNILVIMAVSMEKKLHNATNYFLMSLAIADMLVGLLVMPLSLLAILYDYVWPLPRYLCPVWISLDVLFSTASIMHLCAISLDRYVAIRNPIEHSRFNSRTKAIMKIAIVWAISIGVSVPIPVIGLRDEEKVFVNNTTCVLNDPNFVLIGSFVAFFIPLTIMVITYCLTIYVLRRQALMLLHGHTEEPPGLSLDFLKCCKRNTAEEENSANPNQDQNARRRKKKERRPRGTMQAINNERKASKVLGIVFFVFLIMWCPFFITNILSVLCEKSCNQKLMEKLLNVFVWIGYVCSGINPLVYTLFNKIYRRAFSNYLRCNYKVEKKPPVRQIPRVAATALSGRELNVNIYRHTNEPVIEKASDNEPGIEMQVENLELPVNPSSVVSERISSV

[3] = first animal (R07/R04/R01/R10), read-out: Plasma concentration
[4] = mean of 3 rats, read-out: Plasma concentration, Mean ± SD
[5] = second animal (R08/R05/R02/R11), read-out: Plasma concentration
[6] = third animal (R09/R06/R03/R12), read-out: Plasma concentration
[7] = first animal (R07/R04/R01/R10), read-out: Apparent t1/2 (converted)
[8] = mean of 3 rats, read-out: Apparent t1/2, Mean ± SD (converted)
[9] = second animal (R08/R05/R02/R11), read-out: Apparent t1/2 (converted)
[10] = third animal (R09/R06/R03/R12), read-out: Apparent t1/2 (converted)
[11] = first animal (R07/R04/R01/R10), read-out: AUC0-tlast
[12] = mean of 3 rats, read-out: AUC0-tlast, Mean ± SD
[13] = second animal (R08/R05/R02/R11), read-out: AUC0-tlast
[14] = third animal (R09/R06/R03/R12), read-out: AUC0-tlast

Structure (SMILES)	concentration at 0.25 h [1, 3] [ng/mL]	concentration at 0.25 h [1, 4] [ng/mL]	concentration at 0.25 h [1, 5] [ng/mL]	concentration at 0.25 h [1, 6] [ng/mL]	concentration at 1 h [1, 3] [ng/mL]	concentration at 1 h [1, 4] [ng/mL]	concentration at 1 h [1, 5] [ng/mL]	concentration at 1 h [1, 6] [ng/mL]	concentration at 4 h [1, 3] [ng/mL]	concentration at 4 h [1, 4] [ng/mL]	concentration at 4 h [1, 5] [ng/mL]	concentration at 4 h [1, 6] [ng/mL]	half-life [1, 7] [min]	half-life [1, 8] [min]	half-life [1, 9] [min]	half-life [1, 10] [min]	AUC(0-t) [1, 11] [ng·h/mL]	AUC(0-t) [1, 12] [ng·h/mL]	AUC(0-t) [1, 13] [ng·h/mL]	AUC(0-t) [1, 14] [ng·h/mL]	further results
COCCN1CCC[C@@H]1Cc1c[nH]c2ccc(OC)cc12 [(R) I-98, (R)-5-Methoxy-3-((1-(2-methoxyethyl)pyrrolidin-2-yl)methyl)-1H-indole]	411	446 ± 34.1	479	449	128	113 ± 14.2	110	100	2.48	2.32 ± 0.139	2.25	2.23	30.8	30.4 ± 0.473	29.9	30.3	403	409 ± 15.1	426	397	recovery at 6 h, 1 µM [2]: 96.4%; fraction unbound at 6 h, 1 μM [2]: 0.632; % Remaining @ 6 hours [2]: 103.70%; Emax (% of serotonin) (human 5-HT2C receptor): 95.23 % of serotonin; EC50 (human 5-HT2C receptor): 6.51 nM
[2H]C([2H])(c1c[nH]c2ccc(OCCCCN3C(=O)c4ccccc4C3=O)cc12)[C@H]1CCCN1C([2H])([2H])[2H] [(R) I-244, (R)-2-(4-((3-((1-(Methyl-d3)pyrrolidin-2-yl)methyl-d2)-1H-indol-5-yl)oxy)butyl)isoindoline-1,3-dione]	252	292 ± 59.4	360	263	132	130 ± 21.6	150	107	20.7	22 ± 1.63	23.8	21.4	63.6	63 ± 2.96	60	66	390	415 ± 65.7	490	366	recovery at 6 h, 1 µM [2]: 84.8%; fraction unbound at 6 h, 1 μM [2]: 0.101; % Remaining @ 6 hours [2]: 94.96%; Emax (% of serotonin) (human 5-HT2C receptor): 87.27 % of serotonin; EC50 (human 5-HT2C receptor): 2.53 nM
